According to PMC6397271 (Scientific Reports, 2019):
Converted amounts (≈) assume the structure as drawn. Where two headings read alike, the source gives them in different places.

Key:
[1] = tested on: sheep erythrocytes; experiment: Erythrocyte lysis assay; type: cell-based; conditions: 37 °C, 1 hour, A450 nm; for cell lysis (haemolysis): 10^8 cells/ml, vs 4% Triton X-100, triplicates
Experimental: The protocol of the lysis assay is presented below.
To obtain sheep erythrocytes, 5 ml of fresh blood was centrifuged at 1000 × g for 10 min and washed 3 times with 0.9% NaCl. Cell suspension (final concentration of 10^8 cells/ml) in a volume of 75 µl was added to each well of the 96-well microtiter plate and incubated at 37 °C in the presence of the tested compounds. The range of their concentrations was 100–0.049 µM (diluted in saline solution), which included that of MIC values for the tested strains of the bacteria.
Plates with samples were incubated at 37 °C for 1 hour and then centrifuged at 1000 × g for 10 min to separate the unlysed erythrocytes. Next, the supernatant was transferred to a new plate. The absorbance (A) was measured spectrophotometrically at 450 nm of wavelength. The experiments were performed in triplicates.
The haemolysis percentage was calculated according to the equation presented by Sharma et al.[43]. The percentage of haemolysis = [(A450nm of test compound treated sample-A450nm of buffer treated sample)/(A450nm of 4%TritonX-100 treated samples-A450nm of buffer treated sample)] × 100.

[2] = tested on: S. aureus MRSA N315; experiment: microbe, parasite or virus in culture; type: cell-based, Staphylococcus aureus
Source text: (§1) Three bacterial strains of MRSA (N315, 12673, 6347) and two of Enterococcus spp. (E. faecium, E. faecalis) were used. With respect to MRSA, N315 represented a reference Van-susceptible strain (GenBank GCA_00000645.1) isolated from a patient while 12673 (Van-intermediately susceptible) and 6347 (a h-VISA which appears at frequency of <10^−5 to 10^−6 is composed of two subpopulations of bacteria: one susceptible and one intermediately resistant)[38] were clinical strains obtained from patients of The Clinical University Centre of Gdańsk (UCK). […] The clinical strain isolates originated from the collection of the Department of Pharmaceutical Technology and Biochemistry, Faculty of Chemistry, Gdańsk University of Technology.
(§2) The strains were grown in Mueller-Hinton broth (MH cation-adjusted, Becton Dickinson) or Brain Heart Infusion broth (BHI, Becton Dickinson), respectively. The cultivation was carried out in an aerobic atmosphere at 37 °C for 24 hours and, afterwards, the bacterial cultures were diluted in geometric progression with a proper broth. Next, 100 µl of each dilution was inoculated in an agar plate and incubated at 37 °C for 24 h. The next procedures included determination of Colony Forming Units (CFU)/ml and minimal inhibitory concentration (MIC) of the compounds in question. The latter procedure was carried out according to the microbroth dilution technique using 96-well plates. The MICs were evaluated by using the metabolic assay based on the resazurin dye. The assay was performed in triplicates.

[3] = tested on: S. aureus MRSA 12673; experiment: microbe, parasite or virus in culture; type: cell-based, Staphylococcus aureus; conditions: for MIC: raw MIC
Source text: as §1, §2

[4] = tested on: S. aureus MRSA hetero-VISA 6347; experiment: microbe, parasite or virus in culture; type: cell-based, Staphylococcus aureus
Source text: as §1, §2

[5] = tested on: bacterial strain not named; experiment: Raw data of the MIC measurement (absorbance); type: cell-based; conditions: concentration marked (MIC) in raw absorbance data
Experimental: as §2

[6] = tested on: Enterococcus faecalis 3937158; experiment: microbe, parasite or virus in culture; type: cell-based
Source text: as §1, §2

[7] = tested on: Enterococcus faecium 3934825; experiment: microbe, parasite or virus in culture; type: cell-based
Source text: as §1, §2

[8] = BBB penetration, fluorescence microscopy of brain slices; type: in vivo, BALB/c male mice; conditions: iv tail vein 60 mg/kg, 2 hours, coronal cryo-sections, excitation 490 nm, emission 521 nm, n = 5
Experimental: In vivo experiments were performed on BALB/c male mice weighing between 20 and 30 g (the mouse model is widely used for estimation of drug BBB penetration). The animals (obtained from TAZD-CBU) were kept in a 12-hour day and night cycle at room temperature (20–22 °C), humidity 55–56% and fed with a standard diet and water ad libitum for at least 1 week before the experiment. Body temperature and weight were recorded on a regular daily schedule. It is confirmed that all procedures were carried out according to the guidelines outlined by the European Community Council Directive 2010/63/EEC, and they were approved by the local Ethical Committee Resolution 26/2014 (Bydgoszcz, Poland).
Fl-[Lys^7(PEG4-Van)]TP10 was administered to the mouse (n = 5) tail vein at a dose of 60 mg/kg in a volume of 100 μl of saline.
After 2 hours, the mice were sacrificed (by isoflurane overdose) and their brains were immediately removed from the cranium and cooled to 4 °C. Five, […] coronal cryo-sections of the brain were made starting from the frontal pole and moving to the occipital pole (HM 450 Sliding Microtome). The presence of the compound in question in the brain slices was visualized using a fluorescence microscope (Delta Optical IB-100, Delta Optical, Poland) at a fluorescence excitation and emission of 490 nm and 521 nm, respectively. […]

[9] = microbroth dilution, 96-well, resazurin, 37 °C, 24 h, mean ± SD, at least three independent experiments in triplicates
[10] = raw MIC, first block, test a, repetition 1, read-out: MIC1a
[11] = raw MIC, first block, test a, repetition 2, read-out: MIC2a
[12] = raw MIC, first block, test a, repetition 3, read-out: MIC3a
[13] = raw MIC, first block, test b, repetition 1, read-out: MIC1b
[14] = raw MIC, first block, test b, repetition 2, read-out: MIC2b
[15] = raw MIC, first block, test b, repetition 3, read-out: MIC3b
[16] = raw MIC, test a, repetition 1, read-out: MIC1a
[17] = raw MIC, test a, repetition 2, read-out: MIC2a
[18] = raw MIC, test a, repetition 3, read-out: MIC3a
[19] = raw MIC, test b, repetition 1, read-out: MIC1b
[20] = raw MIC, test b, repetition 2, read-out: MIC2b
[21] = raw MIC, test b, repetition 3, read-out: MIC3b
[22] = same test as μM value, mean ± SD

## CC[C@H](C)[C@H](NC(=O)[C@H](CCCCN)NC(=O)[C@H](CCCCN)NC(=O)[C@H](C)NC(=O)[C@H](CC(C)C)NC(=O)[C@H](C)NC(=O)[C@H](C)NC(=O)[C@H](CC(C)C)NC(=O)[C@H](C)NC(=O)[C@H](CCCCN)NC(=O)[C@H](CC(C)C)NC(=O)[C@H](CC(N)=O)NC(=O)[C@@H](NC(=O)[C@H](CCCCN)NC(=O)CNC(=O)[C@H](CC(C)C)NC(=O)[C@H](CC(C)C)NC(=O)[C@H](Cc1ccc(O)cc1)NC(=O)CNC(=O)[C@H](C)NC(=O)c1cn(CCOCCOCCOCCOCCC(=O)N[C@@]2(C)C[C@H](O[C@H]3[C@H](Oc4c5cc6cc4Oc4ccc(cc4Cl)[C@@H](O)[C@@H](NC(=O)[C@@H](CC(C)C)NC)C(=O)N[C@@H](CC(N)=O)C(=O)N[C@H]6C(=O)N[C@H]4C(=O)N[C@H](C(=O)N[C@H](C(=O)O)c6cc(O)cc(O)c6-c6cc4ccc6O)[C@H](O)c4ccc(c(Cl)c4)O5)O[C@H](CO)[C@@H](O)[C@@H]3O)O[C@@H](C)[C@H]2O)nn1)[C@@H](C)CC)C(=O)N[C@@H](CC(C)C)C(N)=O [conjugate II, Van-PEG4-TP10]
[1]; 12.5 µM
  cell lysis (haemolysis): 5%
[1]; 100 µM
  cell lysis (haemolysis): 77%
[1]; 6.25–0.78 μM
  hemolysis at MIC concentrations: lack of hemolysis
[2]; [9]
  MIC: 1.6 ± 0.8 µM (≈ 6.33 µg/mL)
[2]; [10]
  MIC: 1.6 µM (≈ 6.33 µg/mL)
[2]; [11]
  MIC: 3.2 µM (≈ 12.7 µg/mL)
[2]; [12]
  MIC: 1.6 µM (≈ 6.33 µg/mL)
[2]; [13]
  MIC: 1.6 µM (≈ 6.33 µg/mL)
[2]; [14]
  MIC: 3.2 µM (≈ 12.7 µg/mL)
[2]; [15]
  MIC: 1.6 µM (≈ 6.33 µg/mL)
[2]; [16]
  MIC: 6.33 µM (≈ 25 µg/mL)
[2]; [17]
  MIC: 12.66 µM (≈ 50.1 µg/mL)
[2]; [18]
  MIC: 6.33 µM (≈ 25 µg/mL)
[2]; [19]
  MIC: 6.33 µM (≈ 25 µg/mL)
[2]; [20]
  MIC: 6.33 µM (≈ 25 µg/mL)
[2]; [21]
  MIC: 6.33 µM (≈ 25 µg/mL)
[2]; [22]
  MIC in (μg/ml): 6.3 ± 2.6 µg/mL (≈ 1.59 µM)
[3]; first block, test a, repetition 1, read-out: MIC1a
  MIC: 1.6 µM (≈ 6.33 µg/mL)
[3]; first block, test a, repetition 2, read-out: MIC2a
  MIC: 3.2 µM (≈ 12.7 µg/mL)
[3]; first block, test a, repetition 3, read-out: MIC3a
  MIC: 1.6 µM (≈ 6.33 µg/mL)
[3]; first block, test b, repetition 1, read-out: MIC1b
  MIC: 1.6 µM (≈ 6.33 µg/mL)
[3]; first block, test b, repetition 2, read-out: MIC2b
  MIC: 1.6 µM (≈ 6.33 µg/mL)
[3]; first block, test b, repetition 3, read-out: MIC3b
  MIC: 1.6 µM (≈ 6.33 µg/mL)
[3]; test a, repetition 1, read-out: MIC1a
  MIC: 6.33 µM (≈ 25 µg/mL)
[3]; test a, repetition 2, read-out: MIC2a
  MIC: 12.66 µM (≈ 50.1 µg/mL)
[3]; test a, repetition 3, read-out: MIC3a
  MIC: 6.33 µM (≈ 25 µg/mL)
[3]; test b, repetition 1, read-out: MIC1b
  MIC: 6.33 µM (≈ 25 µg/mL)
[3]; test b, repetition 2, read-out: MIC2b
  MIC: 6.33 µM (≈ 25 µg/mL)
[3]; test b, repetition 3, read-out: MIC3b
  MIC: 6.33 µM (≈ 25 µg/mL)
[3]; [22]
  MIC in (μg/ml): 6.3 ± 2.6 µg/mL (≈ 1.59 µM)
[4]; [9]
  MIC: 3.1 ± 0.8 µM (≈ 12.3 µg/mL)
[4]; [10]
  MIC: 3.1 µM (≈ 12.3 µg/mL)
[4]; [11]
  MIC: 3.1 µM (≈ 12.3 µg/mL)
[4]; [12]
  MIC: 1.56 µM (≈ 6.17 µg/mL)
[4]; [13]
  MIC: 1.56 µM (≈ 6.17 µg/mL)
[4]; [14]
  MIC: 3.1 µM (≈ 12.3 µg/mL)
[4]; [15]
  MIC: 1.56 µM (≈ 6.17 µg/mL)
[4]; [16]
  MIC: 12.26 µM (≈ 48.5 µg/mL)
[4]; [17]
  MIC: 12.26 µM (≈ 48.5 µg/mL)
[4]; [18]
  MIC: 6.13 µM (≈ 24.3 µg/mL)
[4]; [19]
  MIC: 6.13 µM (≈ 24.3 µg/mL)
[4]; [20]
  MIC: 12.26 µM (≈ 48.5 µg/mL)
[4]; [21]
  MIC: 6.13 µM (≈ 24.3 µg/mL)
[4]; [22]
  MIC in (μg/ml): 12.3 ± 3.6 µg/mL (≈ 3.11 µM)
[5]
  MIC (marked in raw data): 1,56 µM
[6]; [9]
  MIC: 25.0 ± 6.5 µM (≈ 98.9 µg/mL)
[6]; [10]
  MIC: 25 µM (≈ 98.9 µg/mL)
[6]; [11]
  MIC: 25 µM (≈ 98.9 µg/mL)
[6]; [12]
  MIC: 12.5 µM (≈ 49.5 µg/mL)
[6]; [13]
  MIC: 12.5 µM (≈ 49.5 µg/mL)
[6]; [14]
  MIC: 25 µM (≈ 98.9 µg/mL)
[6]; [15]
  MIC: 25 µM (≈ 98.9 µg/mL)
[6]; [16]
  MIC: 98.91 µM (≈ 391 µg/mL)
[6]; [17]
  MIC: 98.91 µM (≈ 391 µg/mL)
[6]; [19]
  MIC: 98.91 µM (≈ 391 µg/mL)
[6]; [20]
  MIC: 98.91 µM (≈ 391 µg/mL)
[6]; [21]
  MIC: 98.91 µM (≈ 391 µg/mL)
[6]; [22]
  MIC in (μg/ml): 98.9 ± 21.8 µg/mL (≈ 25 µM)
[7]; [9]
  MIC: 25.0 ± 5.1 µM (≈ 98.9 µg/mL)
[7]; [10]
  MIC: 25 µM (≈ 98.9 µg/mL)
[7]; [11]
  MIC: 25 µM (≈ 98.9 µg/mL)
[7]; [12]
  MIC: 12.5 µM (≈ 49.5 µg/mL)
[7]; [13]
  MIC: 25 µM (≈ 98.9 µg/mL)
[7]; [14]
  MIC: 25 µM (≈ 98.9 µg/mL)
[7]; [15]
  MIC: 25 µM (≈ 98.9 µg/mL)
[7]; [16]
  MIC: 98.91 µM (≈ 391 µg/mL)
[7]; [17]
  MIC: 98.91 µM (≈ 391 µg/mL)
[7]; [18]
  MIC: 49.46 µM (≈ 196 µg/mL)
[7]; [19]
  MIC: 98.91 µM (≈ 391 µg/mL)
[7]; [20]
  MIC: 98.91 µM (≈ 391 µg/mL)
[7]; [21]
  MIC: 98.91 µM (≈ 391 µg/mL)
[7]; [22]
  MIC in (μg/ml): 98.9 ± 20.2 µg/mL (≈ 25 µM)

## Fl-[Lys^7(PEG4-Van)]TP10 [conjugate IVa]
[8]
  presence in mouse brain slices (fluorescence): presence of the conjugate coupled with fluorescein in the brain
